In patent publication US12540131B2 (Merck Sharp & Dohme LLC, priority 2019, dated 2026):

Biological target: GST tagged truncated human mutant G2019S LRRK2 (Homo sapiens (Human), UniProt Q5S007, G2019S)
Experiment: LRRK2 Km ATP LanthaScreen Assay
Format: biochemical
Conditions: G2019S LRRK2, 134 μM ATP (Km ATP), mean values; for IC50: read-out: LRRK2 pIC50 (converted)
Outline: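 Enzyme (GST-tagged, truncated) was preincubated with compound for 15 min at RT in 50 mM Tris pH 8.5, 10 mM MgCl2, 0.01% Brij-35, 1 mM EGTA, 2 mM DTT and 0.05 mM orthovanadate. Fluorescein-LRRKtide and 134 μM ATP (Km) were then added for 90 min. EDTA and Tb-anti-pERM antibody stopped the reaction; the TR-FRET 520/495 ratio gave 4-parameter IC50s, reported as mean pIC50.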

GST tagged truncated human mutant G2019S LRRK2, sequence (Q5S007 970-2527 G2019S): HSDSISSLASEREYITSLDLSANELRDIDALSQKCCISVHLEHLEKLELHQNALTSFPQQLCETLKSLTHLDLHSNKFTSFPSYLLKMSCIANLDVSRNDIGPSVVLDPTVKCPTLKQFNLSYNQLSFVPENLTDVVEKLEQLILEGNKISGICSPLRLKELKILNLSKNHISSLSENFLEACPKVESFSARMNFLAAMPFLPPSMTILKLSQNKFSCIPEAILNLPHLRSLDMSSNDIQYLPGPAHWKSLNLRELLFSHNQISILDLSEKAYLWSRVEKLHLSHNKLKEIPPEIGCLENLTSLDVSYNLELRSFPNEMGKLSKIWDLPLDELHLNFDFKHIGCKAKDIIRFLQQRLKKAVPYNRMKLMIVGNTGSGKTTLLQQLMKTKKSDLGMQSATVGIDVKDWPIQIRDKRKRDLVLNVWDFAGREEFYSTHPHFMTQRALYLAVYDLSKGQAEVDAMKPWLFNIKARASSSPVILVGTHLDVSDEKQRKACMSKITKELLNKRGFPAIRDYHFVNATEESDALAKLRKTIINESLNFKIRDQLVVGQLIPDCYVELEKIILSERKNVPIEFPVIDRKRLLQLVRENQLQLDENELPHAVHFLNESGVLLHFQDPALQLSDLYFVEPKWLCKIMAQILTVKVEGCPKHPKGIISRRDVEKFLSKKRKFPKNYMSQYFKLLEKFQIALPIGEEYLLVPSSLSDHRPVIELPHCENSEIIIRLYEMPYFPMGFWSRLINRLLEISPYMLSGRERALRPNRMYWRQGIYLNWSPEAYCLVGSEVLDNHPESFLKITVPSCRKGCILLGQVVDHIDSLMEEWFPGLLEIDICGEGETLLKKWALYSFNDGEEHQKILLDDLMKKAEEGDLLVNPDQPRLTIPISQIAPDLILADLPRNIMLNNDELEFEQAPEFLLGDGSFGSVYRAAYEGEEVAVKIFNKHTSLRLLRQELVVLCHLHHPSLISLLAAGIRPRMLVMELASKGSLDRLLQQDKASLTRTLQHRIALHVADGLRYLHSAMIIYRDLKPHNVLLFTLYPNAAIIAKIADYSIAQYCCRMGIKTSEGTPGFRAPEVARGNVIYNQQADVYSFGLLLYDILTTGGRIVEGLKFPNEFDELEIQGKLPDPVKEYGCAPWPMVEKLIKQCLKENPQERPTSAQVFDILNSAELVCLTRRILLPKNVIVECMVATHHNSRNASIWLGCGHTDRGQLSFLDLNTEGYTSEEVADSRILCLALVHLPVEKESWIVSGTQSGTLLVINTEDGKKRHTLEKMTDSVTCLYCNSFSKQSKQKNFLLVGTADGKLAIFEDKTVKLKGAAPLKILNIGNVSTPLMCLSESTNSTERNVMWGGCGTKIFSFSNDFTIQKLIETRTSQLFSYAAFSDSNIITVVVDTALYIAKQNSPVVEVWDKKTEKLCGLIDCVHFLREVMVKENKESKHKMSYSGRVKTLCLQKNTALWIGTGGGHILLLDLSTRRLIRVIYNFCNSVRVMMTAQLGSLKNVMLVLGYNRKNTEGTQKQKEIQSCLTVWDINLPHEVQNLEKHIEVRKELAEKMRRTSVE

| SMILES | IC50 [nM] | LRRK2 pIC50 |
| --- | --- | --- |
| N#Cc1cc2cnc(Nc3cnn(C4CC4)c3Cl)nc2cc1[C@H]1CCN(C2COC2)C[C@@H]1F (single isomer, unassigned) [Ex-6.1, (3R,4R) or (3S,4S) 2-((5-chloro-1-cyclopropyl-1H-pyrazol-4-yl)amino)-7-(3-fluoro-1-(oxetan-3-yl)piperidin-4-yl)quinazoline-6-carbonitrile] | 1.91 | – |
| Cc1c(Nc2ncc3cc(Cl)c(C4CCN(C[C@@H](O)c5cc(F)ccc5F)CC4)cc3n2)cnn1C1CC1 [Ex-4.205, (1S)-2-(4-{6-chloro-2-[(1-cyclopropyl-5-methyl-1H-pyrazol-4-yl)amino]quinazolin-7-yl}piperidin-1-yl)-1-(2,5-difluorophenyl)ethan-1-ol] | – | 8.40 |
| CC(C)(O)Cn1ncc(Nc2ncc3cc(Cl)c(C4CCN(C5CCOC5)CC4)cc3n2)c1Cl (single isomer, unassigned) [Ex-4.77, (S) or (R) 1-[5-chloro-4-({6-chloro-7-[1-(oxolan-3-yl)piperidin-4-yl]quinazolin-2-yl}amino)-1H-pyrazol-1-yl]-2-methylpropan-2-ol] | 1.82 | – |
| Cc1cc2cnc(Nc3cc(C(C)(C)C)nn3C)nc2cc1C1CCN([C@]2(C)COC[C@@H]2O)CC1 (single isomer, unassigned) [Ex-5.14, (3S,4S) or (3R,4R) 4-(4-{2-[(3-tert-butyl-1-methyl-1H-pyrazol-5-yl)amino]-6-methylquinazolin-7-yl}piperidin-1-yl)-4-methyloxolan-3-ol] | – | 9.02 |
| [2H]C1(N2CCC(c3cc4nc(Nc5cnn(CC(C)(C)O)c5Cl)ncc4cc3Cl)CC2)COC1 [Ex-4.59, 1-(5-chloro-4-((6-chloro-7-(1-(oxetan-3-yl-3-d)piperidin-4-yl)quinazolin-2-yl)amino)-1H-pyrazol-1-yl)-2-methylpropan-2-ol] | – | >9.20 |
| Cc1cc2cnc(Nc3cnn(C4CC4)c3C)nc2cc1[C@H]1CCN(C2COC2)C[C@@H]1F (single isomer, unassigned) [Ex-5.4, (3S,4S) or (3R,4R) N-(1-cyclopropyl-5-methyl-1H-pyrazol-4-yl)-7-[3-fluoro-1-(oxetan-3-yl)piperidin-4-yl]-6-methylquinazolin-2-amine] | – | 8.75 |
| Clc1cc2cnc(Nc3cnn(C4CC4)c3Cl)nc2cc1C1CCN(C2CCOC2)CC1 (single isomer, unassigned) [Ex-4.48, (S) or (R) 6-chloro-N-(5-chloro-1-cyclopropyl-1H-pyrazol-4-yl)-7-[1-(oxolan-3-yl)piperidin-4-yl]quinazolin-2-amine] | 0.891 | – |
| Cc1c(Nc2ncc3cc(Cl)c(C4CCN(C5COC5)CC4)cc3n2)cnn1CCF [Ex-4.54, 6-chloro-N-[1-(2-fluoroethyl)-5-methyl-1H-pyrazol-4-yl]-7-[1-(oxetan-3-yl)piperidin-4-yl]quinazolin-2-amine] | – | >9.20 |
| Cc1c(Nc2ncc3cc(Cl)c(C4CCN(C5COC5)CC4)cc3n2)cnn1C1CC1(F)F (single isomer, unassigned) [Ex-4.179, (R) or (S) 6-chloro-N-[1-(2,2-difluorocyclopropyl)-5-methyl-1H-pyrazol-4-yl]-7-[1-(oxetan-3-yl)piperidin-4-yl]quinazolin-2-amine] | < 0.631 | – |
| O=S1(=O)CC(N2CCC(c3cc4nc(Nc5cnn(C6CC6)c5Cl)ncc4cc3Cl)CC2)C1 [Ex-8.7, 3-(4-(6-chloro-2-((5-chloro-1-cyclopropyl-1H-pyrazol-4-yl)amino)quinazolin-7-yl)piperidin-1-yl)thietane 1,1-dioxide] | – | >9.20 |
| Cc1cc2cnc(Nc3cnn(C4CC4(F)F)c3C)nc2cc1[C@@H]1CCN([C@@H]2COC[C@@H]2O)C[C@H]1F (single isomer, unassigned) [Ex-4.144, (R)(3S,4S)(3S,4S) or (R)(3S,4S)(3R,4R) or (R)(3R,4R)(3S,4S) or (R)(3R,4R)(3R,4R) or (S)(3S,4S)(3S,4S) or (S)(3S,4S)(3R,4R) or (S)(3R,4R)(3S,4S) or (S)(3R,4R)(3R,4R) 4-[4-(2-{[1-(2,2-difluorocyclopropyl)-5-methyl-1H-pyrazol-4-yl]amino}-6-methylquinazolin-7-yl)-3-fluoropiperidin-1-yl]oxolan-3-ol] | – | 8.68 |
| CC(n1ncc(Nc2ncc3cc(Cl)c(C4CCN(C5COC5)CC4)cc3n2)c1Cl)C(F)(F)F (single isomer, unassigned) [Ex-8.3, (S) or (R) 6-chloro-N-[5-chloro-1-(1,1,1-trifluoropropan-2-yl)-1H-pyrazol-4-yl]-7-[1-(oxetan-3-yl)piperidin-4-yl]quinazolin-2-amine] | < 0.631 | – |
| C[C@@]1(N2CC[C@@H](c3cc4nc(Nc5cnn(C6CC6)c5Cl)ncc4cc3Cl)[C@H](F)C2)COC[C@@H]1O (single isomer, unassigned) [Ex-4.249, (3S,4S)(3S,4S) or (3S,4S)(3R,4R) or (3R,4R)(3S,4S) or (3R,4R)(3R,4R) 4-(4-{6-chloro-2-[(5-chloro-1-cyclopropyl-1H-pyrazol-4-yl)amino]quinazolin-7-yl}-3-fluoropiperidin-1-yl)-4-methyloxolan-3-ol] | – | >9.20 |
| Cc1c(Nc2ncc3cc(Cl)c(C4CCN(C5CCC(CC#N)C5)CC4)cc3n2)cnn1C1CC1 (single isomer, unassigned) [Ex-4.169, (1R,3R) or (1S,3R) or (1R,3S) or (1S,3S) [3-(4-{6-chloro-2-[(1-cyclopropyl-5-methyl-1H-pyrazol-4-yl)amino]quinazolin-7-yl}piperidin-1-yl)cyclopentyl]acetonitrile] | – | 8.25 |
| Cc1c(Nc2ncc3cc(Cl)c([C@@H]4CCN([C@@H]5COC[C@@H]5O)C[C@H]4F)cc3n2)cnn1C12CC(C1)C2 (single isomer, unassigned) [Ex-4.161, (3S,4S)(3S,4S) or (3S,4S)(3R,4R) or (3R,4R)(3S,4S) or (3R,4R)(3R,4R) 4-[4-(2-{[1-(bicyclo[1.1.1]pentan-1-yl)-5-methyl-1H-pyrazol-4-yl]amino}-6-chloroquinazolin-7-yl)-3-fluoropiperidin-1-yl]oxolan-3-ol] | – | 8.92 |
| COCC12CC(n3ncc(Nc4ncc5cc(Cl)c(C6CCN(C7(C)COC7)CC6)cc5n4)c3C)(C1)C2 [Ex-2.32, 6-chloro-N-{1-[3-(methoxymethyl)bicyclo[1.1.1]pentan-1-yl]-5-methyl-1H-pyrazol-4-yl}-7-[1-(3-methyloxetan-3-yl)piperidin-4-yl] quinazolin-2-amine] | < 0.631 | – |
| CC1(N2CCC(c3cc4nc(Nc5cnn(C67CC(C(C)(C)O)(C6)C7)c5)ncc4cc3Cl)CC2)COC1 [Ex-2.58, 2-{3-[4-({6-chloro-7-[1-(3-methyloxetan-3-yl)piperidin-4-yl]quinazolin-2-yl}amino)-1H-pyrazol-1-yl]bicyclo[1.1.1]pentan-1-yl}propan-2-ol] | – | 9.17 |
| CC1(n2ncc(Nc3ncc4cc(Cl)c(C5CCN(C6COC6)CC5)cc4n3)c2Cl)CC1 [Ex-4.56, 6-chloro-N-[5-chloro-1-(1-methylcyclopropyl)-1H-pyrazol-4-yl]-7-[1-(oxetan-3-yl)piperidin-4-yl]quinazolin-2-amine] | – | >9.20 |
| Cc1c(Nc2ncc3cc(Cl)c(C4CCN(C5(C)COC5)CC4)cc3n2)cnn1C12CC(C1)C2 [Ex-2.22, N-[1-(bicyclo[1.1.1]pentan-1-yl)-5-methyl-1H-pyrazol-4-yl]-6-chloro-7-[1-(3-methyloxetan-3-yl)piperidin-4-yl]quinazolin-2-amine] | – | >9.20 |
| Cc1cc2cnc(Nc3cnn(C45CC(C4)C5)c3C)nc2cc1C1CCN(C2(C)COC2)CC1 [Ex-5.8, N-[1-(bicyclo[1.1.1]pentan-1-yl)-5-methyl-1H-pyrazol-4-yl]-6-methyl-7-[1-(3-methyloxetan-3-yl)piperidin-4-yl]quinazolin-2-amine] | – | >9.20 |
| CC1OCC1N1CCC(c2cc3nc(Nc4cnn(C5CC5)c4Cl)ncc3cc2Cl)CC1 (single isomer, unassigned) [Ex-4.47, (2R,3R) or (2S,3S) or (2S,3R) or (2R,3S) 6-chloro-N-(5-chloro-1-cyclopropyl-1H-pyrazol-4-yl)-7-[1-(2-methyloxetan-3-yl)piperidin-4-yl]quinazolin-2-amine] | – | 7.62 |
| Cc1c(Nc2ncc3cc(Cl)c(C4CCN([C@H]5COC[C@H]5O)CC4)cc3n2)cnn1C1CC1(F)F (single isomer, unassigned) [Ex-4.183, (R)(3S,4S) or (S)(3S,4S) or (R)(3R,4R) or (S)(3R,4R) 4-[4-(6-chloro-2-{[1-(2,2-difluorocyclopropyl)-5-methyl-1H-pyrazol-4-yl]amino}quinazolin-7-yl)piperidin-1-yl]oxolan-3-ol] | – | >9.20 |
| F[C@H]1CN(C2COC2)CC[C@@H]1c1cc2nc(Nc3cnn(C4CC4(F)F)c3Cl)ncc2cc1Cl (single isomer, unassigned) [Ex-8.30, (R)(3S,4S) or (S)(3S,4S) or (R)(3R,4R) or (S)(3R,4R) 6-chloro-N-[5-chloro-1-(2,2-difluorocyclopropyl)-1H-pyrazol-4-yl]-7-[3-fluoro-1-(oxetan-3-yl)piperidin-4-yl]quinazolin-2-amine] | – | 8.96 |
| CN1CC[C@@H](c2cc3nc(Nc4cnn(C5(C)CC5)c4Cl)ncc3cc2Cl)[C@H](O)C1 (single isomer, unassigned) [Ex-4.29, (3S,4S) or (3R,4R) 4-(6-chloro-2-{[5-chloro-1-(1-methylcyclopropyl)-1H-pyrazol-4-yl]amino}quinazolin-7-yl)-1-methylpiperidin-3-ol] | – | 8.07 |
